# Data reported in ChEMBL document CHEMBL1201862, “PubChem BioAssay data set” (2004).
# Calls of active or inactive are those of the source.
# What was measured:
# Hexokinase HKDC1 [1] = target: T1, Hexokinase HKDC1 (Homo sapiens, UniProt Q2TB90); experiment: HKDC1 hexokinase inhibitors, SAR follow-up, biochemical, set 2 (AID 588355); format: functional
# T1 sequence (Q2TB90 whole entry): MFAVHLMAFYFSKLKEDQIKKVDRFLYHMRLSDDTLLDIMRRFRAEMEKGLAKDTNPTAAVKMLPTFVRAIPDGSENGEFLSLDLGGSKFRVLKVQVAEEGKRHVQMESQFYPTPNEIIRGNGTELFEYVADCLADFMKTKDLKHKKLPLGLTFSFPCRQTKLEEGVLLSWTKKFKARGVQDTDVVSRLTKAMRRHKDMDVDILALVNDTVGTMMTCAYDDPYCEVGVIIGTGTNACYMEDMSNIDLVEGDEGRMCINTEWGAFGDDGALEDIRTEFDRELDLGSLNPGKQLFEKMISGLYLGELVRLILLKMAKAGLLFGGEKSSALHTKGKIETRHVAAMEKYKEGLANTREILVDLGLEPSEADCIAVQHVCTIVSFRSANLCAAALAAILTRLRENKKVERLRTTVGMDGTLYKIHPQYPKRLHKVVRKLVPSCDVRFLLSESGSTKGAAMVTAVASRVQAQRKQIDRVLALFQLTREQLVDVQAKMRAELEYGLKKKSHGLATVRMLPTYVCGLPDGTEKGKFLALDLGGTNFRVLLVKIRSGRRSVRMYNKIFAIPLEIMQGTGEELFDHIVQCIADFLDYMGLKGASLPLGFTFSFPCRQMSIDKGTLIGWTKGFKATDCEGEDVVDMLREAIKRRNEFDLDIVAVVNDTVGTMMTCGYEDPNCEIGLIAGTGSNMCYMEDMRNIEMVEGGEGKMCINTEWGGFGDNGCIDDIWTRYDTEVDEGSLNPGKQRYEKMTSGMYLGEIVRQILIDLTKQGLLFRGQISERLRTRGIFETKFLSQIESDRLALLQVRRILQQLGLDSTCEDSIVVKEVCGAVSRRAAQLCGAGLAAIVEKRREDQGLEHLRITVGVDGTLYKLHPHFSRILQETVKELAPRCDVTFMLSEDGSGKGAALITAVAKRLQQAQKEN
# Hexokinase-1 [2] = target: T2, Hexokinase-1 (Homo sapiens, UniProt P19367); experiment: HK1 enzyme inhibition by HKDC1 hits, SAR follow-up, selectivity assay for HKDC1 inhibitor project, biochemical, set 2, resazurin fluorescence coupled readout (AID 588356); format: functional
# T2 sequence (P19367 whole entry): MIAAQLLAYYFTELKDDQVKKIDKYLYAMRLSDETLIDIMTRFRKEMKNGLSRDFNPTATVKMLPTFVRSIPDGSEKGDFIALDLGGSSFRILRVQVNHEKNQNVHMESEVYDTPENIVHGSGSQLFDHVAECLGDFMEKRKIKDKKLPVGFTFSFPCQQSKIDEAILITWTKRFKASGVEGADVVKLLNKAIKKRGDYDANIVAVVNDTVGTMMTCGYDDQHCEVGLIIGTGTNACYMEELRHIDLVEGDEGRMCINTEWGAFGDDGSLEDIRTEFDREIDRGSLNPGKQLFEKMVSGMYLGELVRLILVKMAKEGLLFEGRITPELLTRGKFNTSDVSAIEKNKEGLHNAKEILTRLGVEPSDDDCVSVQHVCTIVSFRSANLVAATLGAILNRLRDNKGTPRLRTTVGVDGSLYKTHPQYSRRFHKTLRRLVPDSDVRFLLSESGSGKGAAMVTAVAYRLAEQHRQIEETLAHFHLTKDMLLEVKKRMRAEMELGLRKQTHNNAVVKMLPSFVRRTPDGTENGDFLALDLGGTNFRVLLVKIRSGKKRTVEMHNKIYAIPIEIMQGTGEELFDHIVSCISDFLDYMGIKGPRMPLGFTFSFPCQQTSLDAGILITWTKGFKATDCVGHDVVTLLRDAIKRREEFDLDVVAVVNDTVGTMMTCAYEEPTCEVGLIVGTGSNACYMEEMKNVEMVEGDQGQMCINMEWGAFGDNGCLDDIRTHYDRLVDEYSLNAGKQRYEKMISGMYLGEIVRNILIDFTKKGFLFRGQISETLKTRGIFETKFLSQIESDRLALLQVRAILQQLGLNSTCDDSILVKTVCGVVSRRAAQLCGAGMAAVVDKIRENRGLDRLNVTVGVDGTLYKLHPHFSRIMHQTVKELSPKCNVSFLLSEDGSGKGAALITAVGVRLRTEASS
# Phospholipase D1 [3] = target: T3, Phospholipase D1 (Homo sapiens, UniProt Q13393); experiment: PLD1 purified enzyme concentration response. [Related pubchem assays (depositor defined):AID588854]; format: functional
# T3 sequence (Q13393 whole entry): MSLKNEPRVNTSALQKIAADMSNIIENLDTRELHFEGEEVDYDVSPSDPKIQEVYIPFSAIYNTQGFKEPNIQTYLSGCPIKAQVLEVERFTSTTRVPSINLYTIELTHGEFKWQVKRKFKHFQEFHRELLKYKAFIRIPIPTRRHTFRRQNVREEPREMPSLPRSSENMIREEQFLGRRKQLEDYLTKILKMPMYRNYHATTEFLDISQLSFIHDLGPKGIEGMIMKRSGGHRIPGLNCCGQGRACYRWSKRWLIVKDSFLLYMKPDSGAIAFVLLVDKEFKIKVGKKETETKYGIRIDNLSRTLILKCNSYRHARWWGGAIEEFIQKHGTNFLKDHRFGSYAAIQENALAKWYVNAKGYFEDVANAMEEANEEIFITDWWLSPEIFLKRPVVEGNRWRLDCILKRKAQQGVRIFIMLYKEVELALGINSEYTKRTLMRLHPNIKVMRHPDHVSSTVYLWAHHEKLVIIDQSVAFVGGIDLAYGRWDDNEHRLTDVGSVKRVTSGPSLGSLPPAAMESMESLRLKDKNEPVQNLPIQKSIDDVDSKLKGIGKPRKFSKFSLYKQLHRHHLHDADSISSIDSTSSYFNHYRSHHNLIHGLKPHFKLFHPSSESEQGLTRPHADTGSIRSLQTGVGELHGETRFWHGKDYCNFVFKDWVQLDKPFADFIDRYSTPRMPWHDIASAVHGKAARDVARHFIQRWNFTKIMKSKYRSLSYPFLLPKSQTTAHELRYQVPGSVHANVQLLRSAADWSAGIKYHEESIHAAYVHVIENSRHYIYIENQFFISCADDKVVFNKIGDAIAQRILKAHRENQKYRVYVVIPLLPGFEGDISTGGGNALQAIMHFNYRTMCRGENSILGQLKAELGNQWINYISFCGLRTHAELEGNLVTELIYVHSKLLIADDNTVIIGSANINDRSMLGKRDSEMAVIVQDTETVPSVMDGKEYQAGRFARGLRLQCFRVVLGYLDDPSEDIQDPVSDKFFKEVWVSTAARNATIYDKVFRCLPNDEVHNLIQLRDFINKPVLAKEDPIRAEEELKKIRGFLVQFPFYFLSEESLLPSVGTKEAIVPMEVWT
# Phospholipase D1 [4] = target: T3, Phospholipase D1; experiment: PLD1 inhibitor potency in cells, dose response (AID 602151); format: functional;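 note: cellular PLD1 assay in Calu-1 cells stimulated with PMA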
# Phospholipase D2 [5] = target: T4, Phospholipase D2 (Homo sapiens, UniProt O14939); experiment: PLD2 purified enzyme concentration response. [Related pubchem assays (depositor defined):AID588854]; format: functional
# T4 sequence (O14939 whole entry): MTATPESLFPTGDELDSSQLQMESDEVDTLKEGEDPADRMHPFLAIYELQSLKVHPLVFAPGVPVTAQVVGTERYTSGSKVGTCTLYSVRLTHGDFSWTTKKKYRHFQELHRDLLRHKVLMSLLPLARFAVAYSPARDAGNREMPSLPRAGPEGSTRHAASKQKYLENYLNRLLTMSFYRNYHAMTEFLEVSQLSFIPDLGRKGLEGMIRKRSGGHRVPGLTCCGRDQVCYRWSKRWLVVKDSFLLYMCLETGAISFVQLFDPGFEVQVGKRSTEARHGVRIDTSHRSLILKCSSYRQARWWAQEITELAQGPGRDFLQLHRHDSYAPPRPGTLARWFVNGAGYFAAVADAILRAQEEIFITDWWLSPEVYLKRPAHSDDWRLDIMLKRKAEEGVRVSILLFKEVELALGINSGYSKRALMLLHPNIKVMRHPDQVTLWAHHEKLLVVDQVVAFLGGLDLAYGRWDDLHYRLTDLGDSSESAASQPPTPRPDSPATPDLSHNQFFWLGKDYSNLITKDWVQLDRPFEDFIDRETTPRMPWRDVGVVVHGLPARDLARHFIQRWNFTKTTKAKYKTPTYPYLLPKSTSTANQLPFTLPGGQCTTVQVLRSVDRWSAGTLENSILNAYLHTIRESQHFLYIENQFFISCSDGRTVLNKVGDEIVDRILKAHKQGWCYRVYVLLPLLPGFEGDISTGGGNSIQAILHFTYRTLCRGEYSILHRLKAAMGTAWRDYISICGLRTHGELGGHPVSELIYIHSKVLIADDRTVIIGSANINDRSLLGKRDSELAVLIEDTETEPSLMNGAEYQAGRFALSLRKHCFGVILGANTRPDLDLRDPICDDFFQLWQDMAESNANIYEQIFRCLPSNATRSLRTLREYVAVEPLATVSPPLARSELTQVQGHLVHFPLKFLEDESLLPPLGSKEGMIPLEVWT
# Phospholipase D2 [6] = target: T4, Phospholipase D2; experiment: PLD2 inhibitor potency in cells, dose response (AID 602147); format: functional;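 note: cellular assay in HEK293 cells overexpressing GFP-tagged PLD2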
# Hexokinase HKDC1 [7] = target: T1, Hexokinase HKDC1; experiment: SAR analysis of small molecule inhibitors of hexokinase domain containing I (HKDC1). [Related pubchem assays (depositor defined):AID493160, AID493190]; format: functional
# Hexokinase-1 [8] = target: T2, Hexokinase-1; experiment: SAR analysis of small molecule inhibitors of hexokinase domain containing I (HKDC1) in the hexokinase 1 selectivity assay. [Related pubchem assays (depositor defined):AID493160, AID493190]; format: functional
# Mu-type opioid receptor = Mu-type opioid receptor (Homo sapiens, UniProt P35372); format: functional, cell-based;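 note: U2OS cells with beta-arrestin recruitment to OPRM1 by beta-gal complementation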
# Mu-type opioid receptor, sequence (P35372 whole entry): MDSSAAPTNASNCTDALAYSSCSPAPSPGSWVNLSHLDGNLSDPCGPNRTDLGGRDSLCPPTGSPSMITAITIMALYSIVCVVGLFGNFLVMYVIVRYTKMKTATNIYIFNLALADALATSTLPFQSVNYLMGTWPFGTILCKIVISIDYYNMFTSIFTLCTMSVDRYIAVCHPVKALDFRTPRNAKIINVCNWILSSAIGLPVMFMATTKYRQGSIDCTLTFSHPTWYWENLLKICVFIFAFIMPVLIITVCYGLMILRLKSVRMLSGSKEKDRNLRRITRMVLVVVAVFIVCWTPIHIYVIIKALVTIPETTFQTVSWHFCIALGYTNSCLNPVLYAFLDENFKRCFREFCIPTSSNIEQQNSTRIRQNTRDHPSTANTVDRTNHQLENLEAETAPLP
# [9] = target: Voltage-gated inwardly rectifying potassium channel KCNH2 (Homo sapiens, UniProt Q12809); details: Potency;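 note: confirmatory quantitative high-throughput screen measuring inhibition of hERG channel activity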
# Voltage-gated inwardly rectifying potassium channel KCNH2, sequence (Q12809 whole entry): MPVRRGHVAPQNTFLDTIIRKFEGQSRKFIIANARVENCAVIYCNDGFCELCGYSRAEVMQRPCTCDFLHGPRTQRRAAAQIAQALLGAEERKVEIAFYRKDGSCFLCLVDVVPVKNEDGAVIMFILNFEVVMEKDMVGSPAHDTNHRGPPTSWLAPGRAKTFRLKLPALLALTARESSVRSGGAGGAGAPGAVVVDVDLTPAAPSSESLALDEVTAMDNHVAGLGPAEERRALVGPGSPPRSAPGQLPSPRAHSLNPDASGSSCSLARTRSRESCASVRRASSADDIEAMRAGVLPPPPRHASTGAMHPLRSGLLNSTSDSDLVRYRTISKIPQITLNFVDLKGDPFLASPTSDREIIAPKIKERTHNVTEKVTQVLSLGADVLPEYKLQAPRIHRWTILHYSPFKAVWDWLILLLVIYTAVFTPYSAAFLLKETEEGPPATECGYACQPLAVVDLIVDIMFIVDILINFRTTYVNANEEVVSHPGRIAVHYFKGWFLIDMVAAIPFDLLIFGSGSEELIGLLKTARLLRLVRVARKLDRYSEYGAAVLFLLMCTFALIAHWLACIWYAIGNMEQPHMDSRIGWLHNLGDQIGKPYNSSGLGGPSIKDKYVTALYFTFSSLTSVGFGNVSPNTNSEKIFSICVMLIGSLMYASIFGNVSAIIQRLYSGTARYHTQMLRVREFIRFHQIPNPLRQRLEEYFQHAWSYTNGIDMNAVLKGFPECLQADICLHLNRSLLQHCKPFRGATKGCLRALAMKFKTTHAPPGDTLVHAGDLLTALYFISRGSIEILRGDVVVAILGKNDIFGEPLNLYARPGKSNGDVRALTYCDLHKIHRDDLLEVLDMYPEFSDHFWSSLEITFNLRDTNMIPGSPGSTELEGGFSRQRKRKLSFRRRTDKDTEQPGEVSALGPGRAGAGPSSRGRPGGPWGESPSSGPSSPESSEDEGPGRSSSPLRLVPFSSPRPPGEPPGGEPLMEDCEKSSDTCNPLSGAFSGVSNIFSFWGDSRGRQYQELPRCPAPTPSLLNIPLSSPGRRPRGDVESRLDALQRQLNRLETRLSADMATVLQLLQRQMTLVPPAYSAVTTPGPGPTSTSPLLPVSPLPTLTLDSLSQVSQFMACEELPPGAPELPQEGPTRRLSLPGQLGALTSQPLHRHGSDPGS
# [10] = target: 5-hydroxytryptamine receptor 2A (Mus musculus, UniProt P35363); format: functional, cell-based;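 note: CHO-K1 cells with tagged receptor and beta-arrestin; agonist potency measured as compound-induced activation of the receptor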
# 5-hydroxytryptamine receptor 2A, sequence (P35363 whole entry): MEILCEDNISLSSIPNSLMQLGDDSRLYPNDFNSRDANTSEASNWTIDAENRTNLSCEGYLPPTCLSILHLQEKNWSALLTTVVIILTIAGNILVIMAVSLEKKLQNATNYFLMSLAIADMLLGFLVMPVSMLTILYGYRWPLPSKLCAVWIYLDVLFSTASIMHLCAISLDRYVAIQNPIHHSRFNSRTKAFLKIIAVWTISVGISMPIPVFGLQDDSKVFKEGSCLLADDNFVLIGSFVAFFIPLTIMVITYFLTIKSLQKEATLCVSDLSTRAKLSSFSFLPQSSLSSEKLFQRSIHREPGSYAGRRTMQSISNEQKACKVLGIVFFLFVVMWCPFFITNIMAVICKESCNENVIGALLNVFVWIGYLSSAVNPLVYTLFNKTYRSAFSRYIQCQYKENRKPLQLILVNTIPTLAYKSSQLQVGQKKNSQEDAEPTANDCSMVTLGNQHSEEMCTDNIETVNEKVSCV
# [11] = NIH-3T3 fibroblast cytotoxicity, dose response, cytotoxicity control, cell-based, fluorescence, Alamar Blue, secondary assay (AID 2327); format: functional;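 note: NIH-3T3 mouse fibroblasts cultured with fluconazole at 8 µg/mL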
# Paired box protein Pax-8 = Paired box protein Pax-8 (Homo sapiens, UniProt Q06710); experiment: inhibitors of PAX8-driven TPO luciferase reporter, dose response, RMG-I cells, cherry-pick (AID 687027); format: functional, cell-based;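 note: luciferase reporter driven by Pax8 target thyroperoxidase promoter measured by SteadyGlo luminescence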
# Paired box protein Pax-8, sequence (Q06710 whole entry): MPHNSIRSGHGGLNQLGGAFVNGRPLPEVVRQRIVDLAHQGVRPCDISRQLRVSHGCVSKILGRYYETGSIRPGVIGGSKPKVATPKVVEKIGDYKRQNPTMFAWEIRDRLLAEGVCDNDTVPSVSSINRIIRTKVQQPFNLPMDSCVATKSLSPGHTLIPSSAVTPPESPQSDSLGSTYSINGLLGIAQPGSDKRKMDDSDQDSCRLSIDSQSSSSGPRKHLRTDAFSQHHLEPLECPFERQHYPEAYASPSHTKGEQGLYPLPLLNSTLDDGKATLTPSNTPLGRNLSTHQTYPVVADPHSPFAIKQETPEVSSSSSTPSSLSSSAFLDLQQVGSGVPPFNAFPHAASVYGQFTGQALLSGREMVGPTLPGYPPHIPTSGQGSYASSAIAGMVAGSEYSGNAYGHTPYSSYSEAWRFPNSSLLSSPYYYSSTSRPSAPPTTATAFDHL
# [12] = C. albicans growth with fluconazole, confirmation, fluorescence, retest (AID 2467); format: functional, cell-based
# [13] = target: T5, Heat shock factor protein 1 (Mus musculus, UniProt P38532); experiment: inhibition of MG132-induced HSE-luciferase signal, confirmation, cell-based, NIH3T3, luminescence, dose retest (AID 2382); format: functional;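 note: NIH3T3 fibroblasts with HSF1-driven luciferase reporter stressed by proteasome inhibitor MG132; luminescence from HSF1-driven luciferase expression after 8 hours of MG132 stress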
# T5 sequence (P38532 whole entry): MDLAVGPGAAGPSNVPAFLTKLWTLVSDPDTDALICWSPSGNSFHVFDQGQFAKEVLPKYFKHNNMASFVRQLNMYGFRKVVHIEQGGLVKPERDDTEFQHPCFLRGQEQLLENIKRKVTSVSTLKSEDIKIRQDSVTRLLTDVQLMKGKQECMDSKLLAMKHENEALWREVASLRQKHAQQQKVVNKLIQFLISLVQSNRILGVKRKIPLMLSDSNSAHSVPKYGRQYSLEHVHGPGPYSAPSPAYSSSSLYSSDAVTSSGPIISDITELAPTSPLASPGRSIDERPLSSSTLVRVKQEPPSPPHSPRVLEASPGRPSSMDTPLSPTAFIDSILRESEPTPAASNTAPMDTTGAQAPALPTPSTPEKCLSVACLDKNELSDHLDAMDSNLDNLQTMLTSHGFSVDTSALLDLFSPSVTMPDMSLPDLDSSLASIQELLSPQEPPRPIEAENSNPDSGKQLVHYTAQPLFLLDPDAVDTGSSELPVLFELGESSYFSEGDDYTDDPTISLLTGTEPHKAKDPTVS
# [14] = HepG2 cell cytotoxicity, dose response, cytotoxicity control for Shn3 inhibitor project, CellTiter-Glo, cherry-picked (AID 624134); format: functional, cell-based
# [15] = inhibitors of SNCA 5'UTR-driven reporter translation, confirmation, H4 neuroglioma cells, luminescence (AID 1988); format: functional, cell-based
# [16] = cytotoxicity in HEK-293T NF-kB-Luc cells, dose response, cytotoxicity control for B/T-cell NF-kB inhibitor project, cell-based, uHTS hits (AID 489019); format: functional;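 note: IC50 reflects cytotoxicity as loss of cell viability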
# [17] = control 3'UTR Renilla luciferase suppression, dose response, counter-screen for Shn3 inhibitor project, cell-based, Clone20-Shn3RL, cherry-picked (AID 624133); format: functional
# cells = format: functional, cell-based
# [18] = inhibitors of SNCA 5'UTR-driven translation, confirmation, luminescence, H4 neuroglioblastoma cells, dose confirmation (AID 2454); format: functional, cell-based;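 note: H4 neuroglioblastoma cells carrying an alpha-synuclein 5'UTR luciferase reporter; potency for inhibition of the luciferase signal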
# [19] = inhibitors of firefly luciferase expression or activity, dose response, H4 neuroglioma cells, luminescence (AID 1990); format: functional, cell-based
# BJ = experiment: cytotoxicity toward Ras-transformed BJeLR fibroblasts, dose response, cell-based, alamar blue fluorescence, cherrypicked samples (AID 2631); format: functional; details: Homo sapiens;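 note: confirmatory dose-response assay in RAS-dependent BJ fibroblasts engineered with TERT, LT and ST, with cytotoxicity read by fluorescence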
# [20] = Shn3 3'UTR reporter inhibitors, dose response, cell-based, Clone20 osteoblasts, firefly luciferase, cherry-picked (AID 624132); format: functional;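 note: firefly luciferase luminescence from reporter carrying the Shn3 3'UTR in osteoblasts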
# Jurkat = experiment: antigen receptor-induced NF-kB inhibitors, dose response, Jurkat, luciferase reporter, luminescence, B- and T-cell (AID 489004); format: functional, cell-based; details: Homo sapiens;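 note: NF-kB luciferase reporter Jurkat cells stimulated with PMA plus ionomycin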
# [21] = Fluorescence-based cell-based high throughput dose response assay for inhibitors of the interaction of nucleotide-binding oligomerization domain containing 2 (NOD2) and the receptor-interacting serine-threonine kinase 2 (RIPK2).; format: functional; details: Homo sapiens
# [22] = luciferase reporter signal reduction – luminescence, H4-C neuroglioblastoma cells, dose response (AID 2458); format: functional, cell-based;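 note: H4 neuroglioblastoma cells stably carrying a luciferase reporter gene fusion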
# [23] = Luminescence Cell-Based Dose Response HTS to Identify Inhibitors of 5'UTR Stem-Loop Driven Prion Protein mRNA Translation in H4 Neuroglioblastoma Cells. [Related pubchem assays: 1827 (Project Summary), 1813 (Primary HTS)]; format: functional
structure (smiles),measurement,setting,value
CC(=O)NC1C(=O)N(Cc2ccccc2)c2ccc(Cl)cc21 (stereo not drawn),IC50,Hexokinase HKDC1 [1],> 80000 nM (inactive)
same,IC50,Hexokinase-1 [2],> 80000 nM (inactive)
C[C@H](CN1CCC(n2c(=O)[nH]c3cc(Cl)ccc32)CC1)NC(=O)c1cc2ccccc2[nH]1,IC50,Phospholipase D1 [3],9 nM (active)
same,IC50,Phospholipase D1 [4],2 nM (active)
same,IC50,Phospholipase D2 [5],120 nM (active)
same,IC50,Phospholipase D2 [6],260 nM (active)
O=C(Nc1cccc(C(F)(F)F)c1)c1cccc(NC(=O)c2cnccn2)c1,IC50,Hexokinase HKDC1 [7],> 80000 nM (inactive)
same,IC50,Hexokinase-1 [8],> 80000 nM (inactive)
C=CCN1CCc2cc(O)c(O)cc2C(c2ccccc2)C1 (stereo not drawn),EC50,Mu-type opioid receptor,92500 nM (inactive)
same,AC50,[9],15800 nM (inconclusive)
same,EC50,[10],2320 nM (active)
COc1ccc(C[C@H]2NC[C@H](O)[C@H]2OC(C)=O)cc1 [ANISOMYCIN],EC50,[11],< 120 nM (active)
same,AC50,Paired box protein Pax-8,< 260 nM (active)
same,EC50,[12],1030 nM (active)
same,EC50,[13],243 nM (active)
same,AC50,[14],> 70000 nM (inactive)
same,EC50,[15],< 100 nM (active)
same,IC50,[16],> 80000 nM (inactive)
same,AC50,[17],3440 nM (active)
same,EC50,cells,121 nM (active)
same,EC50,[18],104 nM (active)
same,EC50,[19],< 100 nM (active)
same,EC50,BJ,30.8 nM (active)
same,AC50,[20],882 nM (active)
same,IC50,Jurkat,< 160 nM (active)
same,IC50,[21],49800 nM (inactive)
same,EC50,[22],91 nM (active)
same,EC50,[23],> 120000 nM (not active)
